Measurements published in patent US9084760B2, “Increasing glutathione levels for therapy” (priority 2008, dated 2015).

Experiments:
red blood cell GSH = test: Red blood cell GSH concentration and ASR in nondiabetic elderly humans after 2-week supplementation (Example 4); assay type: in vivo; conditions: after 2-week oral supplementation
Experimental: (§1) Eight nondiabetic elderly humans were studied in the basal state, and after 2-week oral supplementation with either n-acetylcysteine alone, glycine alone, or both supplements, with a 2-week washout period in-between. […] Plasma lipid peroxides were measured as a marker of ongoing damage due to oxidative stress. Eight younger adult subjects were also recruited as controls.

Plasma lipid peroxides = Plasma lipid peroxides in nondiabetic elderly humans after 2-week supplementation (Example 4); assay type: in vivo; conditions: after 2-week oral supplementation
Experimental: as §1

lipid peroxides (ROOH) = test: Plasma ROOH and glucose in diabetics after 2-week supplementation (Example 3); assay type: in vivo, humans; conditions: after 2-week dietary supplementation
Experimental: (§2) Eight diabetics were studied before and after 2-week dietary supplementation with either n-acetylcysteine (NAC), glycine, or both. Subjects received infusions of ^2H2-glycine to measure the concentration, fractional synthetic rates (FSR) and absolute synthetic rates (ASR) of red cell GSH. Plasma ROOH and glucose levels were measured. Eight non-diabetic subjects were studied as controls.

red cell GSH = test: Red cell GSH concentration, FSR and ASR in diabetics after 2-week supplementation (Example 3); assay type: in vivo, humans; conditions: after 2-week dietary supplementation, Mean±SE
Experimental: as §2

SMILES	GSH concentration (red blood cell GSH) [mmol/L RBC]	GSH-ASR (red blood cell GSH) [mmol/L/day]	concentrations of lipid peroxides (Plasma lipid peroxides) [mmol/L ROOH]	glycemia (lipid peroxides (ROOH))	ROOH concentrations (lipid peroxides (ROOH); plasma)	GSH ASR (red cell GSH) [mmol/L/day]	GSH FSR (red cell GSH) [%/d]	GSH concentration (red cell GSH) [mmol/LRBC]
NCC(=O)O [glycine]	1.21±0.27	0.71 ± 0.05	3.57±1.13					
CC(=O)N[C@@H](CS)C(=O)O [n-acetylcysteine]	1.37±0.30	0.92 ± 0.23	3.22±1.29	remained unchanged	5.78±0.78	0.93 ± 0.18	61±2	1.61±0.15
